Experimental data as given in PubChem BioAssay AID1963448 (Molecular Pharmacology Branch, DTP, NCI, 2024).

Test system: 616215-338-R-J1-PDC complex spheroid growth, % test/control
Assay: Anticancer human tumor 616215-338-R-J1-PDC patient-derived colon adenocarcinoma cell line growth inhibition [Asc]
Conditions: for IC50: curve of first compound; for viability, T/C: stronger effect = lower value
Summary of the method: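 Tumor cells were grown as multicellular spheroids with stromal HUVEC and mesenchymal stem cells and treated singly or in combination. Concentrations fell in half-log steps from the clinical Cmax, or from 10 microM where none was known.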

[1] = second compound 0.03 µM, first compound 0.0316 µM
[2] = second compound 0.03 µM, first compound 0.1 µM
[3] = second compound 0.03 µM, first compound 0.316 µM
[4] = second compound 0.03 µM, first compound 1 µM
[5] = second compound 0.03 µM, first compound 3.16 µM
[6] = second compound 0.03 µM, first compound 10 µM
[7] = second compound 0.0949 µM, first compound 0.0316 µM
[8] = second compound 0.0949 µM, first compound 0.1 µM
[9] = second compound 0.0949 µM, first compound 0.316 µM
[10] = second compound 0.0949 µM, first compound 1 µM
[11] = second compound 0.0949 µM, first compound 3.16 µM
[12] = second compound 0.0949 µM, first compound 10 µM
[13] = second compound 0.3 µM, first compound 0.0316 µM
[14] = second compound 0.3 µM, first compound 0.1 µM
[15] = second compound 0.3 µM, first compound 0.316 µM
[16] = second compound 0.3 µM, first compound 1 µM
[17] = second compound 0.3 µM, first compound 3.16 µM
[18] = second compound 0.3 µM, first compound 10 µM
[19] = second compound 0.949 µM, first compound 0.0316 µM
[20] = second compound 0.949 µM, first compound 0.1 µM
[21] = second compound 0.949 µM, first compound 0.316 µM
[22] = second compound 0.949 µM, first compound 1 µM
[23] = second compound 0.949 µM, first compound 3.16 µM
[24] = second compound 0.949 µM, first compound 10 µM
[25] = second compound 3 µM, first compound 0.0316 µM
[26] = second compound 3 µM, first compound 0.1 µM
[27] = second compound 3 µM, first compound 0.316 µM
[28] = second compound 3 µM, first compound 1 µM
[29] = second compound 3 µM, first compound 3.16 µM
[30] = second compound 3 µM, first compound 10 µM
[31] = second compound 0.1 µM, first compound 0.000316 µM
[32] = second compound 0.1 µM, first compound 0.001 µM
[33] = second compound 0.1 µM, first compound 0.00316 µM
[34] = second compound 0.1 µM, first compound 0.01 µM
[35] = second compound 0.1 µM, first compound 0.0316 µM
[36] = second compound 0.1 µM, first compound 0.1 µM
[37] = second compound 0.316 µM, first compound 0.000316 µM
[38] = second compound 0.316 µM, first compound 0.001 µM
[39] = second compound 0.316 µM, first compound 0.00316 µM
[40] = second compound 0.316 µM, first compound 0.01 µM
[41] = second compound 0.316 µM, first compound 0.0316 µM
[42] = second compound 0.316 µM, first compound 0.1 µM
[43] = second compound 1 µM, first compound 0.000316 µM
[44] = second compound 1 µM, first compound 0.001 µM
[45] = second compound 1 µM, first compound 0.00316 µM
[46] = second compound 1 µM, first compound 0.01 µM
[47] = second compound 1 µM, first compound 0.0316 µM
[48] = second compound 1 µM, first compound 0.1 µM
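Note: spheroids exposed to agents for seven days before readout.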
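Throughout, for viability, T/C: 100% = DMSO vehicle control viability.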

SMILES: O=C(c1cc(Cc2n[nH]c(=O)c3ccccc23)ccc1F)N1CCN(C(=O)C2CC2)CC1 + CCN1C(C(=O)NC23CCC(C(=O)O)(CC2)CC3)C(c2cccc(Cl)c2F)C2(C(=O)Nc3cc(Cl)ccc32)C12CCCCC2
- IC50 (second compound 0.03 µM): > 10000 nM
- IC50 (second compound 0.0949 µM): > 10000 nM
- IC50 (second compound 0.3 µM): > 10000 nM
- IC50 (second compound 0.949 µM): > 10000 nM
- IC50 (second compound 3 µM): > 10000 nM
- viability, T/C [1]: 101%
- viability, T/C [2]: 99.1%
- viability, T/C [3]: 99.4%
- viability, T/C [4]: 99.8%
- viability, T/C [5]: 94.1%
- viability, T/C [6]: 77.6%
- viability, T/C [7]: 99%
- viability, T/C [8]: 100%
- viability, T/C [9]: 97.8%
- viability, T/C [10]: 92.2%
- viability, T/C [11]: 81.2%
- viability, T/C [12]: 67.5%
- viability, T/C [13]: 73.3%
- viability, T/C [14]: 72.6%
- viability, T/C [15]: 78%
- viability, T/C [16]: 71.8%
- viability, T/C [17]: 61.4%
- viability, T/C [18]: 65.2%
- viability, T/C [19]: 74.7%
- viability, T/C [20]: 80.8%
- viability, T/C [21]: 72.4%
- viability, T/C [22]: 68.5%
- viability, T/C [23]: 67%
- viability, T/C [24]: 55.7%
- viability, T/C [25]: 61.4%
- viability, T/C [26]: 62.5%
- viability, T/C [27]: 60.5%
- viability, T/C [28]: 60.1%
- viability, T/C [29]: 51.8%
- viability, T/C [30]: 48.8%

SMILES: C#Cc1c(F)ccc2cc(O)cc(-c3ncc4c(N5CC6CCC(C5)N6)nc(OCC56CCCN5CC(F)C6)nc4c3F)c12 (configuration not stated) + CCN1C(C(=O)NC23CCC(C(=O)O)(CC2)CC3)C(c2cccc(Cl)c2F)C2(C(=O)Nc3cc(Cl)ccc32)C12CCCCC2
- IC50 (second compound 0.03 µM): > 10000 nM
- IC50 (second compound 0.0949 µM): > 10000 nM
- IC50 (second compound 0.3 µM): 1710 nM
- IC50 (second compound 0.949 µM): 1630 nM
- IC50 (second compound 3 µM): < 31.6 nM
- viability, T/C [1]: 91.1%
- viability, T/C [2]: 98.6%
- viability, T/C [3]: 93.5%
- viability, T/C [4]: 94.3%
- viability, T/C [5]: 84.4%
- viability, T/C [6]: 67.5%
- viability, T/C [7]: 84.9%
- viability, T/C [8]: 85.3%
- viability, T/C [9]: 91.4%
- viability, T/C [10]: 82.5%
- viability, T/C [11]: 80.3%
- viability, T/C [12]: 68.1%
- viability, T/C [13]: 56.4%
- viability, T/C [14]: 57.1%
- viability, T/C [15]: 61.6%
- viability, T/C [16]: 54%
- viability, T/C [17]: 44.7%
- viability, T/C [18]: 38.4%
- viability, T/C [19]: 63.6%
- viability, T/C [20]: 66%
- viability, T/C [21]: 60.5%
- viability, T/C [22]: 51%
- viability, T/C [23]: 46.5%
- viability, T/C [24]: 30%
- viability, T/C [25]: 36.6%
- viability, T/C [26]: 42.4%
- viability, T/C [27]: 36.1%
- viability, T/C [28]: 32.4%
- viability, T/C [29]: 20.1%
- viability, T/C [30]: 17.4%

SMILES: Cn1ncnc1[C@H]1c2n[nH]c(=O)c3cc(F)cc(c23)N[C@@H]1c1ccc(F)cc1 + Cc1c(S(C)(=O)=O)c(-c2cc(F)cc(N3CCN(c4ccc(NS(=O)(=O)c5ccc(NC(CCN6CCC(C(=O)OCCCP(=O)(O)O)CC6)CSc6ccccc6)c(S(=O)(=O)C(F)(F)F)c5)cc4)CC3)c2)c(-c2ccc(Cl)cc2)n1C(C)C
- IC50 (second compound 0.1 µM): > 100 nM
- IC50 (second compound 0.316 µM): > 100 nM
- IC50 (second compound 1 µM): 15.4 nM
- IC50 (second compound 3.16 µM): < 0.316 nM
- IC50 (second compound 10 µM): < 0.316 nM
- viability, T/C [31]: 88.5%
- viability, T/C [32]: 104%
- viability, T/C [33]: 85.2%
- viability, T/C [34]: 90.1%
- viability, T/C [35]: 86.2%
- viability, T/C [36]: 84.9%
- viability, T/C [37]: 86.4%
- viability, T/C [38]: 87.6%
- viability, T/C [39]: 90.8%
- viability, T/C [40]: 85.8%
- viability, T/C [41]: 76.6%
- viability, T/C [42]: 69.3%
- viability, T/C [43]: 66.9%
- viability, T/C [44]: 67.8%
- viability, T/C [45]: 63.7%
- viability, T/C [46]: 54%
- viability, T/C [47]: 42.7%
- viability, T/C [48]: 32.9%
- viability, T/C (second compound 3.16 µM, first compound 0.000316 µM): 38.9%
- viability, T/C (second compound 3.16 µM, first compound 0.001 µM): 39%
- viability, T/C (second compound 3.16 µM, first compound 0.00316 µM): 27.3%
- viability, T/C (second compound 3.16 µM, first compound 0.01 µM): 15.8%
- viability, T/C (second compound 3.16 µM, first compound 0.0316 µM): 9.58%
- viability, T/C (second compound 3.16 µM, first compound 0.1 µM): 4.09%
- viability, T/C (second compound 10 µM, first compound 0.000316 µM): 25.9%
- viability, T/C (second compound 10 µM, first compound 0.001 µM): 20%
- viability, T/C (second compound 10 µM, first compound 0.00316 µM): 10.4%
- viability, T/C (second compound 10 µM, first compound 0.01 µM): 4.53%
- viability, T/C (second compound 10 µM, first compound 0.0316 µM): 2.52%
- viability, T/C (second compound 10 µM, first compound 0.1 µM): 1.65%

SMILES: NC1CCC(NC2CC2c2ccccc2)CC1 (configuration not stated) + CNC(C)C(=O)NC1CN(S(=O)(=O)c2cccc(S(=O)(=O)N3CCC4CCC(C(=O)NC(c5ccccc5)c5ccccc5)N4C(=O)C(NC(=O)C(C)NC)C3)c2)CCC2CCC(C(=O)NC(c3ccccc3)c3ccccc3)N2C1=O
- IC50 (second compound 0.00316 µM): > 100 nM
- IC50 (second compound 0.01 µM): > 100 nM
- IC50 (second compound 0.0316 µM): > 100 nM
- IC50 (second compound 0.1 µM): > 100 nM
- IC50 (second compound 0.316 µM): > 100 nM
- IC50 (second compound 1 µM): > 100 nM
- viability, T/C (second compound 0.00316 µM, first compound 0.000316 µM): 101%
- viability, T/C (second compound 0.00316 µM, first compound 0.001 µM): 94.2%
- viability, T/C (second compound 0.00316 µM, first compound 0.00316 µM): 73.6%
- viability, T/C (second compound 0.00316 µM, first compound 0.01 µM): 93.9%
- viability, T/C (second compound 0.00316 µM, first compound 0.0316 µM): 103%
- viability, T/C (second compound 0.00316 µM, first compound 0.1 µM): 91%
- viability, T/C (second compound 0.01 µM, first compound 0.000316 µM): 96.7%
- viability, T/C (second compound 0.01 µM, first compound 0.001 µM): 93.9%
- viability, T/C (second compound 0.01 µM, first compound 0.00316 µM): 95.7%
- viability, T/C (second compound 0.01 µM, first compound 0.01 µM): 100%
- viability, T/C (second compound 0.01 µM, first compound 0.0316 µM): 95.2%
- viability, T/C (second compound 0.01 µM, first compound 0.1 µM): 98%
- viability, T/C (second compound 0.0316 µM, first compound 0.000316 µM): 92%
- viability, T/C (second compound 0.0316 µM, first compound 0.001 µM): 89.8%
- viability, T/C (second compound 0.0316 µM, first compound 0.00316 µM): 89.9%
- viability, T/C (second compound 0.0316 µM, first compound 0.01 µM): 82.8%
- viability, T/C (second compound 0.0316 µM, first compound 0.0316 µM): 96.1%
- viability, T/C (second compound 0.0316 µM, first compound 0.1 µM): 95.3%
- viability, T/C [31]: 100%
- viability, T/C [32]: 87%
- viability, T/C [33]: 92.2%
- viability, T/C [34]: 99%
- viability, T/C [35]: 98.7%
- viability, T/C [36]: 89.8%
- viability, T/C [37]: 103%
- viability, T/C [38]: 94.2%
- viability, T/C [39]: 88.4%
- viability, T/C [40]: 97.5%
- viability, T/C [41]: 102%
- viability, T/C [42]: 90.7%
- viability, T/C [43]: 103%
- viability, T/C [44]: 91%
- viability, T/C [45]: 95.4%
- viability, T/C [46]: 72.9%
- viability, T/C [47]: 98.5%
- viability, T/C [48]: 84.7%
